Measured values from patent publication US20070196360A1, “SUCCINIMIDE AND MALEIMIDE DERIVATIVES AND THEIR USE AS TOPOISOMERASE II CATALYTIC INHIBITORS” (TOPOTARGET A/S, priority 2001, published 2007).
“Also recorded” adds a separate entry of the source. Read-outs that look alike come from different tables or passages of the source. Marks after values point to notes of the source that are not given here.

What was measured:
[1] = system: cultured human cancer cells; experiment: Clonogenic assay (cytotoxicity; antagonism of topoisomerase II poison cytotoxicity); details: for IC50: Homo sapiens, read-out: IC50 (clonogenic assay); for inhibition of the toxicity of the classical poisons (protection): poisons VP16, DAU, IDA
Source text: The information derived from the clonogenic assay is cytotoxicity.
A 3-week clonogenic assay is used. […] The number of cells is adjusted to obtain 2000 to 3000 colonies in the control dishes. Finally, the colonies are counted.

[2] = target: T1, purified topoisomerase II α (Homo sapiens, UniProt P11388); experiment: Decatenation assay (kDNA decatenation); type: biochemical
T1 sequence (P11388 whole entry): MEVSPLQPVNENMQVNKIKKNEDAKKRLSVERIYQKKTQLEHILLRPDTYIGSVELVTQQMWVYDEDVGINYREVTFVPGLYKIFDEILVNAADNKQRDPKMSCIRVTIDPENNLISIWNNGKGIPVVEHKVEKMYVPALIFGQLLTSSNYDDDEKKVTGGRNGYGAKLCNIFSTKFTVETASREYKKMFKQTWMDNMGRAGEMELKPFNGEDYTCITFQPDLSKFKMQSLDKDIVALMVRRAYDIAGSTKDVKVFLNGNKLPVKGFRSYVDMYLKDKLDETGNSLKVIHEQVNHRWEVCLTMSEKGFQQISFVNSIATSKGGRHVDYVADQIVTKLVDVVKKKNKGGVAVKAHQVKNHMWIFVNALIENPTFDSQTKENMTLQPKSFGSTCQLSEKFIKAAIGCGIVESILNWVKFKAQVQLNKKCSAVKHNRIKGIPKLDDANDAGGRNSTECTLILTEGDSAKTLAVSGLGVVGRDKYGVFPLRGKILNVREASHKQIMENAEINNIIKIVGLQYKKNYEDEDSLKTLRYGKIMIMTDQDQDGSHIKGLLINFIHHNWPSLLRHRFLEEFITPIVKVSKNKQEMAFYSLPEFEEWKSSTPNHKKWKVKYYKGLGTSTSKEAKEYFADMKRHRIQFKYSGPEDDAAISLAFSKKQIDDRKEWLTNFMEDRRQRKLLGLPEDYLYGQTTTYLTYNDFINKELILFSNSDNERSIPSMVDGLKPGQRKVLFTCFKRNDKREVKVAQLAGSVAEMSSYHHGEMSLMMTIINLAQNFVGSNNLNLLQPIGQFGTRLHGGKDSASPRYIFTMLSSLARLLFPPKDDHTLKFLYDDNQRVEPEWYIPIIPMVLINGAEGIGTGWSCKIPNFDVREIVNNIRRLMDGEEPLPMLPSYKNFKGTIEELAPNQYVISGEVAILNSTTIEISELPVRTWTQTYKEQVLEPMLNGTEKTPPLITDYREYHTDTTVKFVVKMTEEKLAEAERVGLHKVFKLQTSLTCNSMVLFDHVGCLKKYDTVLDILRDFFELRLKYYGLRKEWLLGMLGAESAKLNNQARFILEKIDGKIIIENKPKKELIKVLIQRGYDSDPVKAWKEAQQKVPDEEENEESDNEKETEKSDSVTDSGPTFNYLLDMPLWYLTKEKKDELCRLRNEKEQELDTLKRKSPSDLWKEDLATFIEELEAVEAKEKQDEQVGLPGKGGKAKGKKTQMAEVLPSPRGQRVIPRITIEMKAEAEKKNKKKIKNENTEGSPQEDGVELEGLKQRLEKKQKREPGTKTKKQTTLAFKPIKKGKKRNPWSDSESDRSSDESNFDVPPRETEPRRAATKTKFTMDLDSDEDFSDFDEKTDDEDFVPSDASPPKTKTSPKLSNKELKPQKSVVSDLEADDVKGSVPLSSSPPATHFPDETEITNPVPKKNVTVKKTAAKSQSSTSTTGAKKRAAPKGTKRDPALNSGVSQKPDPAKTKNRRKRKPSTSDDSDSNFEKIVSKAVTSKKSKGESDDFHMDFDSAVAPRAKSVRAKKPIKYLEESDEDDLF
Source text: The decatenation assay is a direct measurement of a given compounds inhibitory action on purified topoisomerase II enzyme. The general role of the topoisomerase II enzyme in living cells is to cause decatenation of catenated DNA during cell division. If a compound is able to inhibit this decatenation, the compound is an inhibitor of the topoisomerase II enzyme. While this assay is capable of determining whether a given compound is active against topoisomerase II, information concerning the exact mode of action is not provided.
Topoisomerase II catalytic activity is measured by kDNA decatenation. ^3H labelled kDNA is isolated from Crithidia fasciculata (ATCC, Manassas, Va.) as described in (24). Briefly, relevant concentrations of the test compound in buffer (50 mM Tris-Cl, pH8, 120 mM KCl, 10 mM MgCl2, 1.0 mM ATP, […]) and purified topoisomerase II α is incubated with […] for 15 min at 37° C. in a final volume of 20 μl. After addition of stop buffer/loading dye mix (5% Sarkosyl, 0.0025% bromophenol blue, 25% glycerol), samples are loaded on 1% agarose/0.5% ethidium bromide gels and run in TBE buffer containing […] ethidium bromide at 100V for approximately 50 min and photographed under UV light. In addition, loading wells are cut out and scintillation counted to obtain numerical values. These values are then plotted against drug concentration to obtain dose-response curves enabling the determination of IC50 values for individual compounds.

[3] = system: OC—NYH cells; experiment: Alkaline elution (single strand DNA breaks, SSBs)
Procedure: This assay thus provides information concerning a given compounds ability to cause (or antagonize in the case of topoisomerase II catalytic inhibitors in the combination with classical topoisomerase II poisons) DNA damage in intact cells.
The assays for SSBs and for DPCs (DNA-protein cross-links) are performed according to Kohn et. al (23).
For measurement of single-strand breaks (SSBs), L1210 cells used as internal standard are exposed to 100 μM H2O2 for 60 min on ice, corresponding to an irradiation dose of 300 rad as described by Szmigiero and Studzian (25). OC—NYH cells are incubated in medium supplemented with the indicated drug at 37° C. for the specified periods, washed in 10 mL ice-cold PBS and then lysed on the filter (Nucleopore, 2.0 μM pore size) with 5 mL of SDS-EDTA lysis solution (2% SDS, 0.1 glycine and 0.025 M Na2EDTA) at pH 10, followed by addition of 1.5 mL SDS-EDTA lysis solution supplemented with 0.5 mg/mL proteinase K. Mixing of standard and experimental cells is done immediately prior to lysis. […] Fractions are collected at 20-min intervals for 2 h. Filters are treated with 400 μL 1 N HCl for 1 h at 60° C., cooled and 0.4 M NaOH is added prior to scintillation counting.

[4] = animal studies and patients; cited from earlier work
[5] = target: T1, purified topoisomerase II α; experiment: Plasmid cleavage assay; type: biochemical
Procedure: The plasmid cleavage assay is capable of assessing wether a given compound stimulates topoisomerase II mediated DNA cleavage in the test tube. A modification of the protocol described in (Burden et al., 2001) is used. 350 ng purified human topoisomerase II α, 400 ng pUC18 DNA, and increasing concentrations of drugs were incubated for 6 min at 37° C. in 20 μl topoisomerase II cleavage buffer (10 mM TRIS-HCL pH 7.9, 50 mM NaCl, 50 mM KCl, 5 mM CaCl2, 1 mM EDTA, 15 μg/ml BSA and 1 mM Na2ATP, all from Sigma Chemical Co., St. Louis, Mo., USA). Next, the cleavable complex was trapped by adding 2 μl 10% SDS. After vigorous vortexing 1.5 μl 0.25 M EDTA and 2 μl proteinase K (0.8 μg/ml) in proteinase buffer (50 mM Tris-HCL pH=7.9, 1 mM CaCl2) was added and the samples vortexed. After a 30 min incubation at 45° C., 5 μl loading buffer (5% Sarkosyl, 0.0025% bromophenol blue, 25% glycerol) was added and the samples were exposed to 70° C. for 5 min. Next, samples were run through a 0.8 % agarose gel in 1× TAE buffer for three hours at 5 V/cm to separate different topological forms of plasmid DNA. Finally the gels were strained in distilled water containing 10 μg/ml ethidium bromide for 15 min followed by de-strained in distilled water for one hour before they were photographed in UV light. […] Further, compounds not capable of stimulating topoisomerase mediated DNA cleavage while being active in the decatenation assay are also classified as topoisomerase II catalytic inhibitors.

[6] = system: extractable topoisomerase II in OC—NYH cells; experiment: Band depletion assay
Procedure: OC—NYH cells are incubated for 1 h at 37 C in RPMI 1640 with 10% of fetal calf serum with the desired compounds for test. Thereafter, whole cell lysates were obtained at 4 C. Exponentially growing cells were harvested and washed in PBS. Cells are resuspended in 0.2 mL ELB-buffer (NaCl 0.25 M, NP40 0.1%, HEPES 50 mM, EDTA 5 mM) containing aprotinin 1 μg/ml, leupeptin 1 μg/ml, DTT 1M and PMSF 0.3 mM and lysed for 30 min. Pellets are spun down at 20000×g for 20 min. The protein concentration of the supernatants is measured, and the supernatants are diluted with an equal volume of glycerol.
After heating the nuclear extracts for 5 min at 95 C, the sample is immediately loaded on a 7% SDS-PAGE gel containing 5% glycerol. Thereafter, all steps are performed at RT. The separated proteins are transferred to Trans-Blot® Nitrocellulose, in a Mini Trans-blot® Electrophoretic Transfer Cell with 25 mM Tris, 192 mM glycine and 205 v/v methanol, pH 8.3 at 210 mA for 1 h. Membranes are blocked in 10% milk in TBS-T for 1 h and probed with either topoisomerase II as (1:1000) 1 h. Horseradish-peroxidase-conjugated donkey-antirabbit antibodies are used as secondary antibodies. The blots are developed using ECL™reagent 1 min and thereafter exposed on films for 5 min. Quantification of can be made by densitometric scanning.

[7] = system: NCI-H69, NCI-H69/DAU and NCI-H69/VP; experiment: Clonogenic assay on NCI-H69 and multi drug resistant derivatives; type: cell-based, human; details: NCI-H69 versus NCI-H69/DAU and NCI-H69/VP
Source text: Further corroboration of catalytic inhibitory activity of compounds of formula M was found in clonogenic assays on human lung cancer cell lines H69/dau and H69/VP because no resistance to compounds of formula M was found in these cell lines which are selected to be daunorubicin and, etopside (VP-16) resistant respectively.
A 3-week clonogenic assay is used. […] Finally, the colonies are counted.

[8] = FIG. 7, read-out: IC50, decatenation assay
[9] = read-out: IC50, topoisomerase II decatenation
[10] = compound 75 uM, daunorubicin 0.3 uM
[11] = etoposide 50 uM, compound between 5 and 625 uM

CN1C(=O)C=CC1=O [NMM, N-methyl-maleimide]
antagonism of etoposide and daunorubicin mediated cytotoxicity [1]: effectively blocked | IC50 [1]: 4 µM | inhibition of topoisomerase II catalytic activity (decatenation), in words [2]: Very potent, | IC50 [2, 8]: ~4 µM | IC50 [2, 9]: 5 µM

C[C@@H](CN1CC(=O)NC(=O)C1)N1CC(=O)NC(=O)C1 [ICRF-187, (+)-1,2-bis(3,5-dioxopiperazinyl-1-yl)propane, reference compound]
protection class ([1]; compound 500 uM, idarubicin 0.01 μM): (IDA(0.01)+ up to (The + indicates, that the protection. i.e. log(number of surviving cells) is about 1.) | survival ([1]; compound 500 uM, idarubicin 0.03): ≤ 40% survival)* | LD50 ([1]; compound alone): 750 µM | toxic to cells ([1]; compound given alone): no toxicity and Not | inhibition of the toxicity of the classical poisons (protection) [1]: Effective inhibitor of | inhibition of topoisomerase II catalytic activity (decatenation), in words [2]: effectively. IC50 about | IC50 [2, 9]: ~50 µM | reversal of etoposide (VP-16) induced SSBs ([3]; compound 500 μM, etoposide 3 μM (FIG. 4)): reversal | inhibition of VP-16 induced SSBs ([3]; compound at 200 uM): Effective inhibition of | protection against anthracycline extravasation injuries [4]: protected | antagonism of etoposide induced DNA cleavage [5]: cleavage. No

CC(CNC1CC(=O)NC1=O)NC1CC(=O)NC1=O (stereo not shown) [I-112]
protection against VP-16 toxicity [1]: VPneg. | protection class [1, 10]: DAU(0.3[…]uM)+ up to (The + indicates, that the protection. i.e. log(number of surviving cells) is about 1.) | survival [1, 10]: ≤ 20% survival. | LD10 ([1]; compound alone): LD10 = 75 uM. | toxic to cells ([1]; compound given alone): no cytotoxicity; also recorded: Not toxic to cells | inhibition of the toxicity of the classical poisons (protection) [1]: able to protect; also recorded: Inhibits the toxicity of | inhibition of topoisomerase II catalytic activity (decatenation), in words [2]: effectively. IC50 about | IC50 [2, 9]: ~100 µM | inhibition of VP-16 induced SSBs ([3]; compound at 250 uM, FIG. 4: etoposide 3 μM): reversal; also recorded: Effective inhibition of

O=C1CC(NCCNC2CC(=O)NC2=O)C(=O)N1 (stereo not shown) [I-21, N,N′-Di-(pyrrolidine-2′,5′-dione-3′-yl)-ethylene-1,2-diamine]
protection class ([1]; compound 500 uM, VP-16 20 uM): + (The + indicates, that the protection. i.e. log(number of surviving cells) is about 1.) | survival ([1]; compound 500 uM, VP-16 20 uM): ≤ 1% | LD50 ([1]; compound alone): LD50 = 750 uM. | toxic to cells ([1]; lower pH): pH 7.4. Tax at lower | toxic to cells ([1]; pH 7.4): Not toxic to cells | inhibition of the toxicity of the classical poisons (protection) [1]: Only very weak | concentration from which topoisomerase II decatenation is inhibited [2]: above 500 uM. IC50 | IC50 [2, 9]: ~800 µM | effect on the VP-16 induced SSBs ([3]; compound from 50-500 uM): No effect on the VP-16

CCN1C(=O)C=CC1=O [NEM, N-ethyl-maleimide]
IC50 [1]: 4 µM | inhibition of topoisomerase II catalytic activity (decatenation), in words [2]: Very potent, | IC50 [2, 8]: ~4 µM | IC50 [2, 9]: 5 µM | DNA damage by the compound itself ([3]; concentrations up to 250 uM): Only limited DNA | antagonism of etoposide induced DNA cleavage [5]: capable of antagonising | stimulation of topoisomerase II mediated DNA cleavage [5]: does not stimulate | antagonism of etoposide induced DNA cleavage [5, 11]: Strong

COc1cc([C@@H]2c3cc4c(cc3[C@@H](O[C@@H]3O[C@@H]5CO[C@@H](C)O[C@H]5[C@H](O)[C@H]3O)[C@H]3COC(=O)[C@H]23)OCO4)cc(OC)c1O [etoposide, reference compound]
extractable amount of topoisomerase II ([6]; cells treated with 100 μM): clearly reduced

O=C1C=CC(=O)N1 [maleimide]
antagonism of etoposide and daunorubicin mediated cytotoxicity [1]: effectively blocked | survival ([1]; compound 0.5 uM, DAU 0.5 uM): up to 10% | protection class ([1]; compound 0.5 uM, VP-16 20 uM): (VP-16 (20 uM)+ (The + indicates, that the protection. i.e. log(number of surviving cells) is about 1.) | survival ([1]; compound 0.5 uM, VP-16 20 uM): up to 30% | LD50 ([1]; compound alone): LD50 4 uM. | toxic to cells ([1]; compound given alone): toxic to cells in itself; also recorded: Very toxic to | inhibition of poison induced cell toxicity ([1]; etoposide 20 μM and daunorubicin 0.3 μM (FIG. 3)): strong | inhibition of the toxicity of the classical poisons (protection) [1]: Effective | inhibition of topoisomerase II catalytic activity (decatenation), in words [2]: Very potent, | IC50 [2, 8]: ~2 µM | IC50 [2, 9]: 2 µM | antagonism of DNA damage induced by etoposide, daunorubicin or doxorubicin [3]: antagonize | inhibition of VP-16 induced SSBs ([3]; compound at 50 uM): antagonise; also recorded: Effective | antagonism of etoposide induced DNA cleavage [5]: capable of antagonising | stimulation of topoisomerase II mediated DNA cleavage [5]: does not stimulate | antagonism of etoposide induced DNA cleavage [5, 11]: Strong | cross resistance of MDR cell lines [7]: No cross resistance | band depleting effect of etoposide ([6]; etoposide 100 μM, compound 50 μM (FIG. 10)): completely lost
